Entries after “also recorded” stand apart in the source; their conditions may differ.
Experiments:
ClC-1 channel = assay: Whole cell patch clamp of single FDB muscle fibers after morpholino injection/electroporation; type: in vivo, HSA^LR mice; conditions: for ClC-1 current density: 3-5 days after foot pad injection/electroporation; for ClC-1 deactivation kinetics: 3-5 days after injection, -100 mV
Procedure: Antisense morpholino targeting the 3′ splice junction of ClC-1 exon 7a was injected into foot pad muscle of HSA^LR mice under general anesthesia. Uptake into muscle fibers was enhanced by in vivo electroporation. The morpholino was tagged with fluorescein. 4 days later, individual FDB muscle fibers were isolated. […] As a control, the opposite footpad was injected with morpholino having the inverted sequence. […] The peak current density in HSA^LR mice (center panel) is much lower than in wild-type mice (left panel). However, after morpholino treatment in HSA^LR mice (right panel), the current density is restored to levels that are similar to wild-type mice. […] The antisense morpholino (closed squares) restores chloride current density to normal levels (open circles or triangles).
The dashed lines represent the zero current level. Capacitative currents recorded from each fiber are shown in the insert of each panel (scale bars: vertical, 3 nA; horizontal, 4 ms). Superimposed traces (solid lines) of normalized ClC-1 current deactivation at −100 mV in FDB fibers obtained from invert- (circles) and antisense-treated (squares) HSA^LR mice and antisense-treated WT mice (triangles) fit with a second order exponential (symbols) are shown in the insert to the left hand panel. Note that accelerated ClC-1 deactivation kinetics of FDB fibers obtained from HSA^LR mice is normalized only following treatment with antisense morpholino. […] Smooth curves through each dataset were generated using a modified Boltzmann equation (Lueck, J. D., et al. (2007) J Gen Physiol 129:79-94). […] Mean±s.e.m.; *P<0.05 invert-treated HSA^LR fibers compared to each of the other experimental conditions; t-test. […] Mean±s.d.; n=3 to 7 per group. Antisense morpholino was injected into one TA, invert morpholino was injected into the contralateral TA, and gastrocnemius muscle served as an untreated control. **P<0.0001 for antisense- vs invert-treated control; ANOVA.
Therefore, the effect of AON treatment on ClC-1 channel function was determined Hindlimb foot pads of […] WT and HSA^LR mice were injected/electroporated with carboxyfluorescein-labeled antisense or invert morpholino. Patch clamp analysis was performed three-to-five days after injection, at a time when fibers were still small enough to maintain an effective voltage clamp (Lueck, J. D., et al. (2007) J Gen Physiol 129:79-94). […] Rescue of ClC-1 activity was not due to a shift in channel activation since the voltage dependence of relative channel open probability (Po) was not different between antisense and invert-injected HSA^LR and WT fibers (FIG. 26C).
Delivery of antisense and invert morpholinos into FDB fibers was achieved by injection and electroporation of hindlimb footpads. Briefly, 12-14-day-old HSA^LR mice were anesthetized by intraperitoneal injection of 100 mg/kg ketamine, 10 mg/kg xylazine, and 3 mg/kg acepromazine. Hindlimb foot pads then were injected with bovine hyaluronidase followed 1 hour later with 20 μg (10 μl, 2 μg/μl in PBS) of antisense or invert carboxyfluorescein-labeled morpholino. Uptake of morpholinos was enhanced by electroporation (100 V/cm, 20 pulses at 1 Hz, and 20 ms per pulse) of the foot pad immediately after injection (DiFranco, M., et al. (2006) Protein Expr Purif 47:281-288). Three to five days after injection/electroporation, individual FDB muscle fibers were isolated as previously described (Lueck, J. D., et al. (2007) J Gen Physiol 129:79-94). Brightfield and fluorescence (488 nm excitation) images of single FDB fibers were acquired using a 40× (1.4 NA) objective and a TILL IMAGO QE cooled-CCD camera. […] ClC-1 currents were measured and analyzed in whole cell patch clamp experiments (Hamill, O. P., et al. (1981) Pflugers Arch 391:85-100) using an approach identical to that described in detail elsewhere (Lueck, J. D., et al. (2007) J Gen Physiol 129:79-94). ClC-1 current density (pA/pF) was calculated in order to compare data across fibers of different sizes. […]

HSA^LR mice = assay: Electromyography of myotonia after ClC-1 antisense morpholino, HSA^LR mice; type: in vivo; conditions: TA muscle
Procedure: FIGS. 21A, 21B, 21C, and 21D show the effects of antisense morpholino targeting the 3′ splice junction of ClC-1 exon 7a on splicing and myotonia in HSA^LR transgenic mice. Antisense morpholino targeting the 3′ splice junction of ClC-1 exon 7a was injected into tibialis anterior muscle of HSA^LR mice under general anesthesia (sequence 5′-[…]-3′ (SEQ ID NO: 4)). The contralateral muscle was injected with morpholino having the inverted sequence (5′-[…]-3′(SEQ ID NO: 5)). Uptake into muscle fibers was enhanced by in vivo electroporation. The determination of which side received the antisense morpholino was randomized. […] Electromyography was blinded to the randomization.
HSA^LR (Mankodi, A., et al. (2000) Science 289:1769-1773) or Mbnl1^ΔE3/ΔE3 mice (Kanadia, R. N., et al. (2003) Science 302:1978-1980) were anesthetized by intraperitoneal injection of 100 mg/kg ketamine, 10 mg/kg xylazine, and 3 mg/kg acepromazine. TA muscle was pretreated by intramuscular injection of bovine hyaluronidase (15 μl, 0.4 U/μl) (Sigma) (McMahon, J. M., et al. (2001) Gene Ther 8:1264-1270). Two hours later, 10 or 20 μg of morpholino in a total volume of 20 μl phosphate buffered saline (PBS) was injected using a 30-gauge needle. TA muscle was then electroporated using electrodes placed parallel to the long axis of the muscle. Electroporation parameters were 100 V/cm, 10 pulses at 1 Hz, and 20 ms duration per pulse. Antisense or control morpholino with inverted sequence was injected into TA muscles of opposite limbs. The determination of which TA received antisense morpholino was randomized, and investigators remained blinded to this assignment until EMG analyses were completed. Other analyses were performed without blinding. For experiments to determine the distribution of injected oligos, the antisense morpholino was labeled with carboxyfluorescein and cryosections of muscle (10 μM) were examined by fluorescence microscopy, with or without fixation in 4% paraformaldehyde. Some sections were co-labeled with TRITC-wheat germ agglutinin (Parsons, S. A., et al. (2003) Mol Cell Biol 23:4331-4343) (50 μg/ml in PBS; Sigma) and 4′,6-diamidino-2-phenylindole (DAPI) to highlight the surface membranes and nuclei of muscle fibers.
EMG was performed under general anesthesia as described previously (Kanadia, R. N., et al. (2003) Science 302:1978-1980). Images and video recordings of electromyographic myotonia in HSA^LR and Mbnl1^ΔE3/ΔE3 mice are shown in previous reports (Kanadia, R. N., et al. (2003) Science 302:1978-1980; Mankodi, A., et al. (2000) Science 289:1769-1773). […]

| Substance | ClC-1 current density (ClC-1 channel; listed as antisense morpholino) | ClC-1 current density (ClC-1 channel; listed as morpholino AON) | ClC-1 deactivation kinetics (ClC-1 channel; listed as antisense morpholino) | ClC-1 deactivation kinetics (ClC-1 channel; listed as morpholino AON) | voltage dependence of relative channel open probability (Po) (ClC-1 channel; HSA^LR and WT) | myotonia (EMG) (HSA^LR mice; 3 weeks (21 days) after injection, listed as antisense morpholino) | myotonia (EMG) (HSA^LR mice; 8 weeks after injection, listed as antisense morpholino) | ClC-1 current density (ClC-1 channel; listed as invert morpholino) | ClC-1 current density (ClC-1 channel; listed as inverted morpholino) | ClC-1 deactivation kinetics (ClC-1 channel) | myotonia (EMG) (HSA^LR mice; 3 weeks (21 days) after injection) | myotonia (EMG) (HSA^LR mice; 8 weeks after injection) |
| --- | --- | --- | --- | --- | --- | --- | --- | --- | --- | --- | --- | --- |
| antisense 1: morpholino 5′-CCAGGCACGGTCTGCAACAGAGAAG-3′ targeting the 3′ splice site of ClC-1 exon 7a (all phosphorodiamidate morpholino (PMO)) | restores normal chloride current density | rescued to WT values | normalized | rescued to WT values | not different | marked reduction of myotonia; also recorded: markedly reduced or absent; also recorded: significantly reduced | markedly reduced or absent; also recorded: significantly reduced | – | – | – | – | – |
| control morpholino: control morpholino 5′-GAAGAGACAACGTCTGGCACGGACC-3′, the 5′-3′ invert of the 3′ splice site blocker (all phosphorodiamidate morpholino (PMO)) [reference compound] | – | – | – | – | – | – | – | not different from those of untreated HSA^LR fibers | markedly reduced | not different from those of untreated HSA^LR fibers | not different from uninjected muscle | not different from uninjected muscle |

From US9371527B2, “Compositions and methods related to protein displacement therapy for myotonic distrophy” (University of Rochester, priority 2006, dated 2016)
